Measurements: patent publication US20220062218A1, “COMPOSITIONS AND METHODS FOR TREATING DIABETES” (ENZYCHEM LIFESCIENCES, priority 2019, published 2022)
Entries after “also recorded” stand apart in the source; their conditions may differ.

Columns and labels:
GLUT2 = experiment: Plasma membrane GLUT2 expression in high glucose-treated INS-1 cells, western blotting of membrane fractions; type: cell-based, rat; details: pre-treated with 100 pg/mL of PLAG for 1 h, then 30 mM HG for indicated times
Description: To investigate the effect of PLAG on GLUT2 plasma membrane localization, membrane proteins were fractionated and analyzed by western blotting. INS-1 cells were pre-treated with 100 pg/mL of PLAG for lh, and then treated with 30 mM of HG for indicating times.
For membrane protein fractionation, we performed using the MemPER™ Plus Kit (Thermo Scientific, Waltham, Mass., USA) following the manufacturer's instructions. Proteins were separated on 12% sodium dodecyl sulfate-polyacrylamide gels and transferred to polyvinylidene difluoride membranes (EMD Millipore, Darmstadt, Germany) The membranes were blocked and incubated with primary antibodies to GLUT2 (bs-0351r, Bioss, Woburn, Mass., USA) and N+-K+ ATPase (#3010S, Cell Signaling Technology, Danvers, Mass., USA). After three washes in PBST, membranes were incubated with HRP-conjugated secondary antibodies (Enzo Life Sciences, Farmingdale, N.Y., USA) for 1 h at room temperature. Protein bands were detected using ECL reagent (Thermo Scientific) and then visualized on films.

RAC1 = RAC1 expression in membrane fractions of STZ-treated cells by western blotting; type: cell-based, rat; details: time course
Description: In addition, to perform a special protein detection test (Western Blotting), cells were lysed by RIPA buffer (LPS Solution, Daejeon, Korea) supplemented with protease and phosphatase inhibitors (Thermo Scientific, Waltham, Mass., USA). Proteins were separated on 12% sodium dodecyl sulfate-polyacrylamide gels and transferred to polyvinylidene difluoride membranes (EMD Millipore, Darmstadt, Germany). The membranes were blocked with 5% BSA for 1 h and incubated with primary antibodies to GLUT2 (bs-0351r, Bioss, Woburn, Mass., USA), RAC1 (03589, EMD Millipore), BAX (B51030, Bioworld Tech, St. Louis Park, Minn., USA), BCL-2 (B51031, Bioworld), Cytochrome c (#4272, Cell Signaling Technology, Danvers, Mass., USA), Caspase-3 (#9662, Cell Signaling Technology), and Na+-K+ ATPase (#3010S, Cell Signaling Technology). After three washes in PBST, membranes were incubated with HRP-conjugated secondary antibodies (Enzo Life Sciences, dilution 1:5,000) for 1 h at room temperature. Protein bands were detected using ECL reagent (Thermo Scientific) and then visualized on films. Expression of apoptosis-related proteins like Bcl-2, Bax, cytochrome c, caspase-3 was analyzed by western blotting, Bax/Bcl-2 ratio is represented by a bar graph (FIG. 2-C). Data are presented as mean ±SD (***P<0.001 vs. control, #P<0.05, ##P<0.005 vs. STZ). […]

With `CCCCC/C=C\C/C=C\CCCCCCCC(=O)OC(COC(C)=O)COC(=O)CCCCCCCCCCCCCCC` (racemic) [PLAG, 1-palmitoyl-2-linoleoyl-3-acetyl-rac-glycerol] the “GLUT2 expression in plasma membrane (time course)” value (GLUT2) was “gradually decreased until 15 min, then recovered and returned to control levels at 60 min; also recorded: gradually decreased until 15min and then recovered and returned to control levels at 60 min” and the “expression of RAC1 in membrane fractions” value (RAC1) was “attenuated after a slight increase in 15 min”.
